We go through one compound from patent publication US20060258007A1, “Regulated vectors for selection of cells exhibiting desired phenotypes” (priority 2005, published 2006).

The test system of the assay is cells expressing the HSV-TK gene product. Description: Negative selection of pIRES-MAB-TK cultures with ganciclovir. It is filed as cell-based, Chinese Hamster. The following applies: 5 days in the presence of ganciclovir, then an additional 10 days in growth media alone. The protocol:
For example, pIRES-MAB-TK cultures are grown for 5 days in the presence of the prodrug ganciclovir (Sigma), which kills cells expressing the HSV-TK gene product. After 5 days of negative selection, cells are grown for an additional 10 days in growth media alone at which time greater than 95% of cells die off. Resistant clones are then picked and expanded in 10 cm petri dishes. Cells are grown for 3 weeks, after which time a portion is reanalyzed for recombinant protein expression, for example, by western blot, RT-PCR, and/or PCR. DNA is analyzed for the presence of the pIRES-pro-TK or pIRES-MAB-TK vector by PCR using any set of primers that can specifically detect the presence or absence of the pIRES vector, for example, according to methods as previously described in Grasso et al. (1998).

Turning to `Nc1nc(O)c2ncn(COC(CO)CO)c2n1` [ganciclovir], the cells die off entry is listed as “greater than 95%”.
